# Results taken from publication PMC8580996, “2-Oxoglutarate derivatives can selectively enhance or inhibit the activity of human oxygenases” (Nature Communications, 2021).
# “And” between values parts separate entries of the source, which are not always exact repeats. Identical values can stand only once. Like-named read-outs stand apart in the source and are kept apart here.
# Experiments:
# FIH [1] = molecular target: T1, FIH (Homo sapiens, UniProt Q9NWT6); experiment: SPE-MS FIH turnover (cosubstrate) assay in the absence of 2OG; type: biochemical; details: 330 μM 2OG or 2OG derivative, no 2OG, t = 15 min
# Protocol: The ability of 35 synthetic C3/C4-substituted 2OG derivatives, which were prepared via a reported procedure (Supplementary Fig. 1 and Supplementary Methods)[21], to sustain catalysis by purified recombinant FIH in the absence of 2OG was examined using an assay directly monitoring substrate depletion and product formation (i.e., a +16 Da mass shift) by solid-phase extraction (SPE) coupled to mass spectrometry (SPE-MS)[44],[45]. […] (i.e. CA1–20)[47], were used as FIH substrates to test for potential substrate-dependent differences in terms of cosubstrate analog selectivity.
# Assay samples were aspirated under vacuum for 0.6 s and loaded onto a C4 SPE cartridge. After loading, the C4 SPE cartridge was washed with 0.1%v/v aqueous formic acid to remove non-volatile buffer salts (5.5 s, 1.5 mL/min). […] The mass spectrometer was operated using the MassHunter Workstation B.08.00 software (Agilent), the mass spectrometer parameters were: capillary voltage (4000 V), nozzle voltage (1000 V), fragmentor voltage (365 V), gas temperature (280 °C), gas flow (13 L/min), sheath gas temperature (350 °C), sheath gas flow (12 L/min). […] Data were exported into Microsoft Excel and used to calculate the % conversion of the hydroxylation reaction using the equation: % conversion = 100 × (integral product peptide)/(integral substrate peptide+integral product peptide). […] Z′-factors were calculated according to the cited literature using Microsoft Excel (Supplementary Fig. 26)[83].
# FIH [2] = molecular target: T1, FIH; experiment: SPE-MS FIH inhibition assay; type: biochemical; for IC50 FIH: 0.15 µM FIH
# Protocol: FIH inhibition assays were performed as described, using cosubstrate/cofactor stock solutions (L-ascorbic acid, LAA: 50 mM in MQ-grade water; 2-oxoglutarate, 2OG: 10 mM in MQ-grade water; ammonium iron(II) sulfate hexahydrate, FAS, (NH4)2Fe(SO4)2·6H2O: 400 mM in 20 mM HCl diluted to 1 mM in MQ-grade water), which were freshly prepared from commercially-sourced solids (Sigma Aldrich).
# Dimethyl sulfoxide (DMSO) solutions of the 2OG derivatives were dry dispensed across 384-well polypropylene assay plates (Greiner) in an approximately threefold and 11-point dilution series (100 μM top concentration; the final DMSO assay concentration was kept constant at 0.5%v/v) using an ECHO 550 acoustic dispenser (Labcyte). […] Each reaction was performed in technical duplicates in adjacent wells of the assay plates; additionally, assays were performed in two independent duplicates on different days using different inhibitor solutions.
# The Enzyme Mixture (25 μL/well), containing 0.3 μM His6-FIH in buffer (50 mM Tris, 50 mM NaCl, pH 7.5), was dispensed across the inhibitor-containing 384-well assay plates with a multidrop dispenser (ThermoFischer Scientific) at 20 °C under an ambient atmosphere. The plates were subsequently centrifuged (1000 rpm, 15 s) and incubated for 15 min at 20 °C. The Substrate Mixture (25 μL/well), containing 10.0 μM HIF-1α788–822[37] substrate, 200 μM LAA, 20.0 μM 2OG, and 20.0 μM FAS in buffer (50 mM Tris, 50 mM NaCl, pH 7.5), was added using the multidrop dispenser. The plates were centrifuged (1000 rpm, 15 s) and after incubating for 15 min, the enzyme reaction was stopped by the addition of 10%v/v aqueous formic acid (5 μL/well). The plates were then centrifuged (1000 rpm, 30 s) and analyzed by MS.
# MS-analyses were performed using a RapidFire RF 365 high-throughput sampling robot (Agilent) attached to an iFunnel Agilent 6550 accurate-mass quadrupole time-of-flight mass spectrometer operated in the positive ionization mode. Assay samples were aspirated under vacuum for 0.6 s and loaded onto a C4 SPE cartridge. After loading, the C4 SPE cartridge was washed with 0.1%v/v aqueous formic acid to remove non-volatile buffer salts (5.5 s, 1.5 mL/min). […] The mass spectrometer was operated using the MassHunter Workstation B.08.00 software (Agilent), the mass spectrometer parameters were: capillary voltage (4000 V), nozzle voltage (1000 V), fragmentor voltage (365 V), gas temperature (280 °C), gas flow (13 L/min), sheath gas temperature (350 °C), sheath gas flow (12 L/min). The m/z + 2 (for CA1–20) or +3 (for HIF-1α788–822) charge states of the peptide (substrate) and the hydroxylated peptide (product) were used to extract ion chromatogram data, peak areas were integrated using RapidFire Integrator 4.3.0 (Agilent). Data were exported into Microsoft Excel and used to calculate the % conversion of the hydroxylation reaction using the equation: % conversion = 100 × (integral product peptide)/(integral substrate peptide+integral product peptide). […] Z′-factors were calculated according to the cited literature using Microsoft Excel (Supplementary Fig. 26)[83].
# SPE-MS FIH inhibition assays were performed as described in the Methods section.
# Tris, 50 mM NaCl, pH 7.5, 20 °C). […]
# AspH [3] = molecular target: T2, AspH (Homo sapiens, UniProt Q12797); design: method as in PMID 34163896; details: hFX-CP101–119 substrate, 330 μM 2OG or 2OG derivative, t = 15 min; cited from earlier work
# T2 construct: the tetratricopeptide repeat domain (His6-AspH315-758), was produced and purified as previously reported; made in house
# T2 sequence (Q12797 315-758): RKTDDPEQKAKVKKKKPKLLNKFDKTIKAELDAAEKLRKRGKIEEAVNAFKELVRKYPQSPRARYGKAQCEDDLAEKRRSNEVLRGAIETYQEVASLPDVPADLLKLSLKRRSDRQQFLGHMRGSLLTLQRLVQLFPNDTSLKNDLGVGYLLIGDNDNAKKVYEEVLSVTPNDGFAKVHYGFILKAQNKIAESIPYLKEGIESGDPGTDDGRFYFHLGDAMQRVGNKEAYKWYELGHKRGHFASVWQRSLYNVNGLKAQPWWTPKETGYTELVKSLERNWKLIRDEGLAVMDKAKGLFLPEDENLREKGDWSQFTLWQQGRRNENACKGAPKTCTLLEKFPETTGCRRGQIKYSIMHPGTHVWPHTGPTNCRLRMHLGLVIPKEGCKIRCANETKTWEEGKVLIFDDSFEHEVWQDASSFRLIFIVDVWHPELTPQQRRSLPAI
# AspH [4] = molecular target: T2, AspH; details: cited from earlier work
# [5] = source data of Table 3, single independent replicates, read-out: FIH IC50, independent replicate
# [6] = 0.05 μM AspH, 1.0 μM hFX-CP101-119, 3.0 μM 2OG, ref 21 (supplementary ref 1)
# [7] = […] FIH, 5.0 μM HIF-1α788-822, 10 μM 2OG, mean of two runs, read-out: IC50 FIH
# [8] = […] FIH, 5.0 μM HIF-1α788-822, 10 μM 2OG, mean of two runs
# T1 sequence (Q9NWT6 whole entry): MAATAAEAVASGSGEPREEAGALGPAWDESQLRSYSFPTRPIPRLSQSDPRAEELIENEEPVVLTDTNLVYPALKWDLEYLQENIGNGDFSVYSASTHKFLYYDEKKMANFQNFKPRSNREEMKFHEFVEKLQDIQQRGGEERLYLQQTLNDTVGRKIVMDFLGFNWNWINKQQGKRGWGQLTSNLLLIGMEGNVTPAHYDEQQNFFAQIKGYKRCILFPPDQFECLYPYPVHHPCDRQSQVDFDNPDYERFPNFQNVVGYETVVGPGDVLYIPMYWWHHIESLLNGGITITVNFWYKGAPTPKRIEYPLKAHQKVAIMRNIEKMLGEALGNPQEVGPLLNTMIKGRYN
Compound,"FIH activity, %-substrate conversion (FIH [1]; CA1–20 substrate)","FIH activity, %-substrate conversion (FIH [1]; HIF-1α788–822 substrate)",IC50 (FIH [2]; [5]),"AspH activity, %-substrate conversion (AspH [3])",IC50 (AspH [4]; [6]),IC50 (FIH [2]; [7]),IC50 FIH (FIH [2]; [8]),IC50 AspH (AspH [4]; [6]),"IC50 (AspH [4]; NOFD control, supplementary ref 13)","FIH IC50, independent replicate (FIH [2]; source data of Table 3, single independent replicates)"
"CC1(C)c2ccccc2-c2ccc(CC(CC(=O)O)C(=O)C(=O)O)cc21 (stereo not shown) [compound 11, 3-((9,9-dimethyl-9H-fluoren-2-yl)methyl)-2OG]",^c<1% ^d<1%,^c<1% ^d<1%,1.83 µM and 1.86 µM,<1%,4.3 µM,,,,,
CC1(C)C(C(=O)O)C1C(=O)C(=O)O (stereo not shown) [compound 21],^c<1% ^d<1%,^c<1% ^d<1%,,<1%,,19.4 µM,,,,
O=C(O)C(=O)c1ccccc1C(=O)O [compound 26],^c<1% ^d<1%,^c<1% ^d<1%,,<1%,,,inactive,inactive,,
O=C(O)C(=O)c1ccc(C(=O)O)cc1F [compound 29],^c<1% ^d<1%,^c<1% ^d<1%,,~45%,,,inactive,inactive,,
"CCCC(CC(=O)O)C(=O)C(=O)O (stereo not shown) [compound 3, 3-propyl-2OG]",~10%,< 1%,2.64 µM and 2.68 µM,<1%,~5.7 µM,,,,,
Cc1cc(C(=O)O)ccc1C(=O)C(=O)O [compound 33],^c<1% ^d<1%,^c<1% ^d<1%,,~5%,,,inactive,inactive,,
O=C(O)C(=O)CC(Cc1ccc2ccccc2c1)C(=O)O (stereo not shown) [compound 20],^c<1% ^d<1%,^c<1% ^d<1%,,<1%,,2.5 µM,,,,
Cc1cc(C)cc(CC(CC(=O)O)C(=O)C(=O)O)c1 (stereo not shown) [compound 10],^c<1% ^d<1%,^c<1% ^d<1%,,<1%,,,inactive,,,
O=C(O)C(=O)c1ccc(C(=O)O)cc1Br [compound 31],^c<1% ^d<1%,^c<1% ^d<1%,,~20%,,,inactive,inactive,,
CC(C)(C)CCC(CC(=O)O)C(=O)C(=O)O (stereo not shown) [compound 4],^c<1% ^d<1%,^c<1% ^d<1%,,<1%,,31 µM,,,,
O=C(O)CC(Cc1ccc(OC(F)(F)F)cc1)C(=O)C(=O)O (stereo not shown) [compound 8],^c<1% ^d<1%,^c<1% ^d<1%,,<1%,,12.7 µM,,,,
"CCCC(CC(=O)C(=O)O)C(=O)O (stereo not shown) [compound 15, 4-propyl-2OG]",~70%,~5%,15.2 µM and 14.3 µM,<1%,,14.8 µM,,,,
"O=C(O)C(=O)CC(Cc1ccccc1)C(=O)O (stereo not shown) [compound 19, 4-benzyl-2OG]",^c<1% ^d<1%,^c<1% ^d<1%,3.42 µM and 3.64 µM,<1%,,,,,,
CC(C)(C)CCC(CC(=O)C(=O)O)C(=O)O (stereo not shown) [compound 17],^c<1% ^d<1%,^c<1% ^d<1%,,<1%,,38.9 µM,,,,
O=C(O)CC(CCCc1ccccc1)C(=O)C(=O)O (stereo not shown) [compound 5],^c<1% ^d<1%,^c<1% ^d<1%,,<1%,,5.7 µM,,,,
O=C(O)C(=O)C1(C(=O)O)CC1 [compound 23],^c<1% ^d<1%,^c<1% ^d<1%,,<1%,,,inactive,,,
"O=C(O)C(=O)N[C@H](Cc1ccccc1)C(=O)O [NOFD, N-oxalyl-D-phenylalanine, reference compound]",,,,,,,,,15.5 µM,
O=C(O)CC(Cc1ccccc1)C(=O)C(=O)O (stereo not shown) [compound 6],^c<1% ^d<1%,^c<1% ^d<1%,5.76 µM and 7.01 µM,<1%,,6.4 µM,,,,
O=C(O)C(=O)c1ccc(C(=O)O)s1 [compound 35],^c<1% ^d<1%,^c<1% ^d<1%,,~15%,,,inactive,,,not inhibiting
O=C(O)C(=O)[C@@H]1[C@@H](C(=O)O)[C@@H]2C=C[C@H]1C2 (racemic) [compound 24],^c<1% ^d<1%,^c<1% ^d<1%,,<1%,,,inactive,,,
COc1ccc(CC(CC(=O)O)C(=O)C(=O)O)cc1 (stereo not shown) [compound 9],^c<1% ^d<1%,^c<1% ^d<1%,,<1%,,3.6 µM,,,,
O=C(O)CC(Cc1ccc(F)cc1)C(=O)C(=O)O (stereo not shown) [compound 7],^c<1% ^d<1%,^c<1% ^d<1%,,<1%,,7.5 µM,,,,
